Like-named read-outs stand apart in the source and are kept apart here.
Legend:
Assay in all cases: Kinase selectivity profile assay
Type in all cases: biochemical
[1] = biological target: T1, ABL1 (Homo sapiens, UniProt P00519); conditions: 500 nM, relative to DMSO; for remaining activity at 0.5 µM: read-out: Residual enzymatic activity
T1 construct: purchased Reaction Biology Corporation
Procedure, shortened: (§1)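 Radiometric kinase assay run by a standard protocol. Unbound phosphate was removed by washing filters in phosphoric acid, and product radioactivity gave percent remaining kinase activity versus DMSO vehicle reactions. Run in duplicate.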

[2] = biological target: T2, ABL2/ARG (Homo sapiens, UniProt P42684); conditions: for remaining activity at 0.5 µM: 500 nM, relative to DMSO, read-out: Residual enzymatic activity
T2 construct: purchased Reaction Biology Corporation (assay service)
T2 sequence (P42684 whole entry): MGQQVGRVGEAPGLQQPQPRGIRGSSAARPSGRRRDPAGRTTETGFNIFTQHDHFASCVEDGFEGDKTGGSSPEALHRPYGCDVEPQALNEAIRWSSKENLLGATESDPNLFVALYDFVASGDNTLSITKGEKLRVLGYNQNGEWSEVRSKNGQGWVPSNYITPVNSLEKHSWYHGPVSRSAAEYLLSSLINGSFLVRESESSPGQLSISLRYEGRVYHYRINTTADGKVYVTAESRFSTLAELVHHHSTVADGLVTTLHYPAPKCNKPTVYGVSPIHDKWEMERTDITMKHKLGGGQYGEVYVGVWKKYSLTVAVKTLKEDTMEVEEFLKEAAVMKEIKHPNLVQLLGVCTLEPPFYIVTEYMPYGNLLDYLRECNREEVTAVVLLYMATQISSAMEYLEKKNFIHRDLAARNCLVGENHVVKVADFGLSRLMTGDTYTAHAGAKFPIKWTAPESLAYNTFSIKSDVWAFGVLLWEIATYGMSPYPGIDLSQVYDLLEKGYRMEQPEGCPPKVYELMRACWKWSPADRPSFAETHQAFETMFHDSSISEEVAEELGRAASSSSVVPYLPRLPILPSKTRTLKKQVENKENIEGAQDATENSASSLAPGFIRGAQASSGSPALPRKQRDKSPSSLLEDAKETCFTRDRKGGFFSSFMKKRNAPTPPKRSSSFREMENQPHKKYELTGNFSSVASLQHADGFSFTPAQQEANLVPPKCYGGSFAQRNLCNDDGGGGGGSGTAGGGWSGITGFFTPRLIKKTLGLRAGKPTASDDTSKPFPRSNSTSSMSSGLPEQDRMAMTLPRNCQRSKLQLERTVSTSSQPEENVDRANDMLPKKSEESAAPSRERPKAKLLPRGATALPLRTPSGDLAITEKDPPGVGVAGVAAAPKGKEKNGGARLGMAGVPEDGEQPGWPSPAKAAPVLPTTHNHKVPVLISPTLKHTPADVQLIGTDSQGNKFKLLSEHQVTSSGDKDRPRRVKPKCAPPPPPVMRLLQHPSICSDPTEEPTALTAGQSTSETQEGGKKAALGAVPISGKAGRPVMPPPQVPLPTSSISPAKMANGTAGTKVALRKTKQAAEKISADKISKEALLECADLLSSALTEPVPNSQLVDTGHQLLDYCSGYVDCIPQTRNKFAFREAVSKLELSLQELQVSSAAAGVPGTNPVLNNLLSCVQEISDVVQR
Procedure, shortened: as §1

[3] = biological target: T3, CAMK1b (Homo sapiens, UniProt Q6P2M8); conditions: 500 nM; relative to DMSO; read-out: Residual enzymatic activity
T3 construct: purchased Reaction Biology Corporation
T3 sequence (Q6P2M8 whole entry): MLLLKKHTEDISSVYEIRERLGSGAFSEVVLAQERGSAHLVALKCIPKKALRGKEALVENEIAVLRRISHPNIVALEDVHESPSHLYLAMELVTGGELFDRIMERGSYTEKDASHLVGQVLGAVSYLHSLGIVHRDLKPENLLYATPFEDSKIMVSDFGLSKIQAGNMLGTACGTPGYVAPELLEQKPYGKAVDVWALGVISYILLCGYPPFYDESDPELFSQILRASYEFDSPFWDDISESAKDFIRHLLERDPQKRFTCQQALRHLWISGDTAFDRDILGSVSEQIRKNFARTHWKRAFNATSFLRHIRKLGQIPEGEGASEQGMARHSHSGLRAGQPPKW
Procedure, shortened: as §1

[4] = biological target: T4, CAMK2a (Homo sapiens, UniProt Q9UQM7); conditions: 500 nM; relative to DMSO; read-out: Residual enzymatic activity
T4 construct: purchased Reaction Biology Corporation
Procedure, shortened: as §1

[5] = biological target: T5, CDK1/cyclin B (Homo sapiens, UniProt P06493); conditions: 500 nM; relative to DMSO; read-out: Residual enzymatic activity
T5 construct: purchased Reaction Biology Corporation
Procedure, shortened: as §1

[6] = biological target: T6, CDK3/cyclin E (Homo sapiens, UniProt Q00526); conditions: 500 nM; relative to DMSO; read-out: Residual enzymatic activity
T6 construct: purchased Reaction Biology Corporation
Procedure, shortened: as §1

[7] = biological target: T7, CHK1 (Homo sapiens, UniProt O14757); conditions: 500 nM; relative to DMSO; read-out: Residual enzymatic activity
T7 construct: purchased Reaction Biology Corporation
Procedure, shortened: as §1

[8] = biological target: T8, CK1epsilon (Homo sapiens, UniProt P49674); conditions: 500 nM; relative to DMSO; read-out: Residual enzymatic activity
T8 construct: purchased Reaction Biology Corporation
Procedure, shortened: as §1

[9] = biological target: T9, CK2a2 (Homo sapiens, UniProt P19784); conditions: 500 nM; relative to DMSO; read-out: Residual enzymatic activity
T9 construct: purchased Reaction Biology Corporation
Procedure, shortened: as §1

[10] = biological target: T10, DAPK2 (Homo sapiens, UniProt Q9UIK4); conditions: 500 nM; relative to DMSO; read-out: Residual enzymatic activity
T10 construct: purchased Reaction Biology Corporation
Procedure, shortened: as §1

[11] = biological target: T11, DCAMKL1 (Homo sapiens, UniProt O15075); conditions: 500 nM; relative to DMSO; read-out: Residual enzymatic activity
T11 construct: purchased Reaction Biology Corporation
Procedure, shortened: as §1

[12] = biological target: T12, EPHA3 (Homo sapiens, UniProt P29320); conditions: 500 nM, relative to DMSO
T12 construct: purchased Reaction Biology Corporation
Procedure, shortened: as §1

[13] = biological target: T13, EPHA8 (Homo sapiens, UniProt P29322); conditions: 500 nM, relative to DMSO
T13 construct: purchased Reaction Biology Corporation
Procedure, shortened: as §1

[14] = biological target: T14, ERK2/MAPK1 (Homo sapiens, UniProt P28482); conditions: 500 nM; relative to DMSO; read-out: Residual enzymatic activity
T14 construct: purchased Reaction Biology Corporation
T14 sequence (P28482 whole entry): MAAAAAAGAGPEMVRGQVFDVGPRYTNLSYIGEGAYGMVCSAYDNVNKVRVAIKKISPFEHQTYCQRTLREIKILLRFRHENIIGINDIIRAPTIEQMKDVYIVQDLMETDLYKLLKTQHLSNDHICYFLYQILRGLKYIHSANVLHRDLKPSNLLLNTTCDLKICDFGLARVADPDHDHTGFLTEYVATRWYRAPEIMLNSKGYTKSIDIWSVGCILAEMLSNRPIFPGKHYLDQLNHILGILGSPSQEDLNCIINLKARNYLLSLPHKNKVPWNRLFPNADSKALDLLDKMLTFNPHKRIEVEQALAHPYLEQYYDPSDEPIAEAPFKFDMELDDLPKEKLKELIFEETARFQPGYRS
Procedure, shortened: as §1

[15] = biological target: T15, FAK/PTK2 (Homo sapiens, UniProt Q05397); conditions: 500 nM; relative to DMSO; read-out: Residual enzymatic activity
T15 construct: purchased Reaction Biology Corporation
Procedure, shortened: as §1

[16] = biological target: T16, HIPK1 (Homo sapiens, UniProt Q86Z02); conditions: 500 nM; relative to DMSO; read-out: Residual enzymatic activity
T16 construct: purchased Reaction Biology Corporation
Procedure, shortened: as §1

[17] = biological target: T17, IKKe/IKBKE (Homo sapiens, UniProt Q14164); conditions: 500 nM; relative to DMSO; read-out: Residual enzymatic activity
T17 construct: purchased Reaction Biology Corporation
Procedure, shortened: as §1

[18] = biological target: T18, LYN B (Homo sapiens, UniProt P07948); conditions: for remaining activity at 0.5 µM: 500 nM, relative to DMSO, read-out: Residual enzymatic activity
T18 construct: purchased Reaction Biology Corporation (assay service)
T18 sequence (P07948 1-491 isoform P07948-2): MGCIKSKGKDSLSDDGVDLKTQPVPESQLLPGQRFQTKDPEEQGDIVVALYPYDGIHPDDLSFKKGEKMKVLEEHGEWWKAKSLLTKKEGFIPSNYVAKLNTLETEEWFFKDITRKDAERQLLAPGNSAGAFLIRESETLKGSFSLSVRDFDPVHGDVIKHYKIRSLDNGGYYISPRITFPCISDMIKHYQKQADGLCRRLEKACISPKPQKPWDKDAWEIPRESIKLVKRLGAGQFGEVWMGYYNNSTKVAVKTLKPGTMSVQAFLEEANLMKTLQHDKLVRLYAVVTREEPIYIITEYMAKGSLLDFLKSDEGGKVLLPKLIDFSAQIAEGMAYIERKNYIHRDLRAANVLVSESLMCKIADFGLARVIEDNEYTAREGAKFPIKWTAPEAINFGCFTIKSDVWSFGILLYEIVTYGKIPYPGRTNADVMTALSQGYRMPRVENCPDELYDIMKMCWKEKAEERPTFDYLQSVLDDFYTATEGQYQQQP
Procedure, shortened: as §1

[19] = biological target: T19, MAPKAPK2 (Homo sapiens, UniProt P49137); conditions: 500 nM, relative to DMSO; for remaining activity at 0.5 µM: read-out: Residual enzymatic activity
T19 construct: purchased Reaction Biology Corporation
T19 sequence (P49137 whole entry): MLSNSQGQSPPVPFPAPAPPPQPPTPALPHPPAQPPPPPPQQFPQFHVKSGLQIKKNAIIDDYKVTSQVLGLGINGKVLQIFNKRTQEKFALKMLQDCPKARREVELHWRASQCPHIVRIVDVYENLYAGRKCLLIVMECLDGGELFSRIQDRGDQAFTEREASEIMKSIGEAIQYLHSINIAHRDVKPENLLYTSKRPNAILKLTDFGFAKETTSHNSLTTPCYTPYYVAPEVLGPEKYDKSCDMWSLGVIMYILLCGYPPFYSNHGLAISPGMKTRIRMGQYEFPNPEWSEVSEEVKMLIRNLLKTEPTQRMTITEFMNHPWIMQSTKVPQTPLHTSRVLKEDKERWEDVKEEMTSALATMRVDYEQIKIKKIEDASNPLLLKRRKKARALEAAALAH
Procedure, shortened: as §1

[20] = biological target: T20, MARK4 (Homo sapiens, UniProt Q96L34); conditions: 500 nM; relative to DMSO; read-out: Residual enzymatic activity
T20 construct: purchased Reaction Biology Corporation
Procedure, shortened: as §1

[21] = biological target: T21, MRCKb/CDC42BPB (Homo sapiens, UniProt Q9Y5S2); conditions: read-out: Residual enzymatic activity
T21 construct: purchased Reaction Biology Corporation
Procedure, shortened: as §1

[22] = biological target: T22, MST1/STK4 (Homo sapiens, UniProt Q13043); conditions: 500 nM; relative to DMSO; read-out: Residual enzymatic activity
T22 construct: purchased Reaction Biology Corporation
Procedure, shortened: as §1

[23] = biological target: T23, NLK (Homo sapiens, UniProt Q9UBE8); conditions: 500 nM; relative to DMSO; read-out: Residual enzymatic activity
T23 construct: purchased Reaction Biology Corporation
Procedure, shortened: as §1

[24] = biological target: T24, PBK/TOPK (Homo sapiens, UniProt Q96KB5); conditions: 500 nM; relative to DMSO; read-out: Residual enzymatic activity
T24 construct: purchased Reaction Biology Corporation
T24 sequence (Q96KB5 whole entry): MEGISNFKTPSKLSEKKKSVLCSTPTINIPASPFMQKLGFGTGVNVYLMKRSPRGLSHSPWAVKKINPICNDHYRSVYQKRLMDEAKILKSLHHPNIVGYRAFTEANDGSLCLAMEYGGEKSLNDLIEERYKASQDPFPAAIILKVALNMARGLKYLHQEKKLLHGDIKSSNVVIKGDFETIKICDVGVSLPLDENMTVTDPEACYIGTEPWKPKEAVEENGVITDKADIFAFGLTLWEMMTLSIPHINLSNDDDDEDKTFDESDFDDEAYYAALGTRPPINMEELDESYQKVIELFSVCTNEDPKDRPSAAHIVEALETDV
Procedure, shortened: as §1

[25] = biological target: T25, PKCb1 (Homo sapiens, UniProt P05771); conditions: 500 nM; relative to DMSO; read-out: Residual enzymatic activity
T25 construct: purchased Reaction Biology Corporation
Procedure, shortened: as §1

[26] = biological target: T26, PKCiota (Homo sapiens, UniProt P41743); conditions: 500 nM; relative to DMSO; read-out: Residual enzymatic activity
T26 construct: purchased Reaction Biology Corporation
Procedure, shortened: as §1

[27] = biological target: T27, RSK2 (Homo sapiens, UniProt P51812); conditions: 500 nM; relative to DMSO; read-out: Residual enzymatic activity
T27 construct: purchased Reaction Biology Corporation
T27 sequence (P51812 whole entry): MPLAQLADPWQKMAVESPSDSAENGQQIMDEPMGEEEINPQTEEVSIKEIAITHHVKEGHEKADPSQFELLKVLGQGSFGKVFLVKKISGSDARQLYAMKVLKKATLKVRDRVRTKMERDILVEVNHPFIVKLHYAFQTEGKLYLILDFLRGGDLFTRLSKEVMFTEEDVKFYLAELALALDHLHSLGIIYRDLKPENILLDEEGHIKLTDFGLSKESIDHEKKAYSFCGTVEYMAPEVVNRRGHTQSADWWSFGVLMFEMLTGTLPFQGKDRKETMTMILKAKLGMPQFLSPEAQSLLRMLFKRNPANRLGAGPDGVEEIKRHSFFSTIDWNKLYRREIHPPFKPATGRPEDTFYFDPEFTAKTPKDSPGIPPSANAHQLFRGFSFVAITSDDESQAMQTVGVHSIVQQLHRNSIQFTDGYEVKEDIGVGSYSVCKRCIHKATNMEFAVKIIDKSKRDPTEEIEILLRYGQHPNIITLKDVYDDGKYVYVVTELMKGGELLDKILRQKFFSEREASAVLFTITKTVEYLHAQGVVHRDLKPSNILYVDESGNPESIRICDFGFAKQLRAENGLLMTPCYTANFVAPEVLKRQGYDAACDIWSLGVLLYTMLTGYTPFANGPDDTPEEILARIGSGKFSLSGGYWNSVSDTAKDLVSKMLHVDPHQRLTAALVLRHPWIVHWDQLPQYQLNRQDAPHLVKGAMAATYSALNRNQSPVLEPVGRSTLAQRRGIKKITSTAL
Procedure, shortened: as §1

[28] = biological target: T28, SLK/STK2 (Homo sapiens, UniProt Q9H2G2); conditions: 500 nM; relative to DMSO; read-out: Residual enzymatic activity
T28 construct: purchased Reaction Biology Corporation
Procedure, shortened: as §1

[29] = biological target: T29, STK16 (Homo sapiens, UniProt O75716); conditions: 500 nM; relative to DMSO; read-out: Residual enzymatic activity
T29 construct: purchased Reaction Biology Corporation
Procedure, shortened: as §1

[30] = biological target: T30, TAK1 (Homo sapiens, UniProt O43318); conditions: 500 nM; relative to DMSO; read-out: Residual enzymatic activity
T30 construct: purchased Reaction Biology Corporation
Procedure, shortened: as §1

[31] = biological target: T31, TEC (Homo sapiens, UniProt P42680); conditions: 500 nM; relative to DMSO; read-out: Residual enzymatic activity
T31 construct: purchased Reaction Biology Corporation
Procedure, shortened: as §1

[32] = biological target: T32, TTBK1 (Homo sapiens, UniProt Q5TCY1); conditions: 500 nM; relative to DMSO; read-out: Residual enzymatic activity
T32 construct: purchased Reaction Biology Corporation
Procedure, shortened: as §1

[33] = biological target: T33, TYK2 (Homo sapiens, UniProt P29597); conditions: 500 nM; relative to DMSO; read-out: Residual enzymatic activity
T33 construct: purchased Reaction Biology Corporation
Procedure, shortened: as §1

[34] = biological target: T34, WNK3 (Homo sapiens, UniProt Q9BYP7); conditions: 500 nM; relative to DMSO; read-out: Residual enzymatic activity
T34 construct: purchased Reaction Biology Corporation
Procedure, shortened: as §1

[35] = biological target: T35, ZAK/MLTK (Homo sapiens, UniProt Q9NYL2); conditions: 500 nM; relative to DMSO; read-out: Residual enzymatic activity
T35 construct: purchased Reaction Biology Corporation
Procedure, shortened: as §1

[36] = read-out: Residual enzymatic activity
[37] = 10-dose mode, threefold serial dilution from 10 μM

T1 sequence (P00519 whole entry): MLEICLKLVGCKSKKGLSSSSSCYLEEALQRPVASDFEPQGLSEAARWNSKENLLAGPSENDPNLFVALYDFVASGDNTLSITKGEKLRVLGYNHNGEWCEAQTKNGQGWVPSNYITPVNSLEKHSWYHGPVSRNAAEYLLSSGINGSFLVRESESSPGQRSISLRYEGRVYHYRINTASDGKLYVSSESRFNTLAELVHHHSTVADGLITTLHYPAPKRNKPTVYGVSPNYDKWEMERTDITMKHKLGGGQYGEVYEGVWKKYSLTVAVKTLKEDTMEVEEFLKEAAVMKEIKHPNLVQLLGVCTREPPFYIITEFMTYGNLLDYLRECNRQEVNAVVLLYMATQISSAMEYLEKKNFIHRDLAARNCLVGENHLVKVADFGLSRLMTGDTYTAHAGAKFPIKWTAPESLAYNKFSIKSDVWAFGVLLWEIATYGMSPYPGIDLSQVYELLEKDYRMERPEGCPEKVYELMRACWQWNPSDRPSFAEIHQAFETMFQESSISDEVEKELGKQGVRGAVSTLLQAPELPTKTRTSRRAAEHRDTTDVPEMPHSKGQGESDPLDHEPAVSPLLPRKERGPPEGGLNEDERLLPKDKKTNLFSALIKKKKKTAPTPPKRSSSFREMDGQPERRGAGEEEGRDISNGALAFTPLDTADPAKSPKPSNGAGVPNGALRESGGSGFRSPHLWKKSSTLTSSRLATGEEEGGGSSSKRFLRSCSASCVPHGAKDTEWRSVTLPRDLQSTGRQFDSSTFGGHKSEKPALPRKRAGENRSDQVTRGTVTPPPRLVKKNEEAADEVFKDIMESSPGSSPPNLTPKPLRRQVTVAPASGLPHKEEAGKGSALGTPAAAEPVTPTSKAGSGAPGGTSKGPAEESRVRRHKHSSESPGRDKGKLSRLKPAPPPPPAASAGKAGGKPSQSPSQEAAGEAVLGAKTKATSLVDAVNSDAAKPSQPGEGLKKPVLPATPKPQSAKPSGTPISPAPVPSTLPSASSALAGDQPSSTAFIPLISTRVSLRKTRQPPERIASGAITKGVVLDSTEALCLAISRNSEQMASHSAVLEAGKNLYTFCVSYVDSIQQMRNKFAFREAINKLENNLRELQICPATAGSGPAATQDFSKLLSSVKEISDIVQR

COc1cc(Nc2ncc(F)c(Nc3ccc4c(n3)NC(=O)C(C)(C)O4)n2)cc(OC)c1OC [R406, reference compound]
remaining activity at 0.5 µM [1]: 68.6% | remaining activity at 0.5 µM [2]: 34.5% | remaining activity at 0.5 µM [3]: 108% | remaining activity at 0.5 µM [4]: 94.4% | remaining activity at 0.5 µM [5]: 75.6% | remaining activity at 0.5 µM [6]: 90.3% | remaining activity at 0.5 µM [7]: 78.6% | remaining activity at 0.5 µM [8]: 104% | remaining activity at 0.5 µM [9]: 21.4% | remaining activity at 0.5 µM [10]: 103% | remaining activity at 0.5 µM [11]: 84.2% | remaining activity at 0.5 µM [12, 36]: 85.6% | remaining activity at 0.5 µM [13, 36]: 92.6% | remaining activity at 0.5 µM [14]: 88% | remaining activity at 0.5 µM [15]: 29.7% | remaining activity at 0.5 µM [16]: 90.8% | remaining activity at 0.5 µM [17]: 16.1% | remaining activity at 0.5 µM [18]: 14.5% | remaining activity at 0.5 µM [19]: 106% | remaining activity at 0.5 µM [20]: 46.7% | remaining activity at 0.5 µM [21]: 105% | remaining activity at 0.5 µM [22]: 86.3% | remaining activity at 0.5 µM [23]: 107% | remaining activity at 0.5 µM [24]: 100% | remaining activity at 0.5 µM [25]: 63% | remaining activity at 0.5 µM [26]: 103% | remaining activity at 0.5 µM [27]: 56.9% | remaining activity at 0.5 µM [28]: 31.4% | remaining activity at 0.5 µM [29]: 6.3% | remaining activity at 0.5 µM [30]: 48.3% | remaining activity at 0.5 µM [31]: 39.4% | remaining activity at 0.5 µM [32]: 98.5% | remaining activity at 0.5 µM [33]: 10.5% | remaining activity at 0.5 µM [34]: 77.7% | remaining activity at 0.5 µM [35]: 85.4%

COc1cc(Nc2ncnc(Nc3cc4c(cn3)NC(=O)C(C)(C)O4)n2)cc(OC)c1OC [MT-SYK-03]
Residual enzymatic activity [1]: 68.0% | remaining activity at 0.5 µM [1]: > 54% | remaining activity at 0.5 µM [2]: 32.3% | IC50 [2, 37]: 120 nM | remaining activity at 0.5 µM [3]: 106% | remaining activity at 0.5 µM [4]: 94.1% | remaining activity at 0.5 µM [5]: 96% | remaining activity at 0.5 µM [6]: 99% | remaining activity at 0.5 µM [7]: 91.4% | remaining activity at 0.5 µM [8]: 98% | remaining activity at 0.5 µM [9]: 66% | remaining activity at 0.5 µM [10]: 98.4% | remaining activity at 0.5 µM [11]: 97.6% | Residual enzymatic activity [12]: 91.8% | Residual enzymatic activity [13]: 99.7% | remaining activity at 0.5 µM [14]: 90.6% | remaining activity at 0.5 µM [15]: 87.4% | remaining activity at 0.5 µM [16]: 97.4% | remaining activity at 0.5 µM [17]: 77.5% | remaining activity at 0.5 µM [18]: 25.7% | IC50 [18, 37]: 14.2 nM | Residual enzymatic activity [19]: did not inhibit any | remaining activity at 0.5 µM [19]: 101% | remaining activity at 0.5 µM [20]: 92.1% | remaining activity at 0.5 µM ([21]; 500 nM, relative to DMSO): 103% | remaining activity at 0.5 µM [22]: 94.2% | remaining activity at 0.5 µM [23]: 94.9% | remaining activity at 0.5 µM [24]: 102% | remaining activity at 0.5 µM [25]: 104% | remaining activity at 0.5 µM [26]: 102% | remaining activity at 0.5 µM [27]: 104% | remaining activity at 0.5 µM [28]: 81% | remaining activity at 0.5 µM [29]: 50.6% | remaining activity at 0.5 µM [30]: 103% | remaining activity at 0.5 µM [31]: 71% | remaining activity at 0.5 µM [32]: 108% | remaining activity at 0.5 µM [33]: 71.2% | remaining activity at 0.5 µM [34]: 82.4% | remaining activity at 0.5 µM [35]: 92.9%

Source: PMC8632988, “Inhibition of SYK and cSrc kinases can protect bone and cartilage in preclinical models of osteoarthritis and rheumatoid arthritis” (Scientific Reports, 2021)
